In the assay the test system is A549 cells. As to the kind of experiment: Inhibition of cancer cell growth, MTT assay. Format: cell-based. Conditions: Homo sapiens. As for the experimental part: Inhibition of cell growth by compounds was measured using MTT assay (Mosmann, T., Journal of Immunological Methods, 1983, 65, 55-63). Tumor cell lines were purchased from ATCC (American Type Culture Collection, Manassas, Va.). All cell lines were maintained in RPMI 1640 (Hyclone) supplemented with 10% fetal bovine serum (FBS, Hyclone), glutamine (2 mM, Hyclone), and antibiotics (penicillin 100 U/mL and streptomycin 50 μg/mL) at 37° C. in a humidified atmosphere of 5% CO2 in air. Taxol (as a positive control, Sigma) and compounds were dissolved in DMSO (Sigma), and the final concentration of DMSO in the medium was 1%. Tumor cells were plated in 96-well plates at densities of about 4000 cells/well of a 96-well plate and allowed to adhere/grow for 24 h. They were then treated with various concentrations of drug for 72 h. 3-(4,5-Dimethylthiazol-2-yl)-2,5-diphenyltetrazolium bromide (MTT, Sigma) was used to determine the number of viable cells at the time of compound addition and the number of cells remaining after 72 h compound exposure. The number of cells remaining after 72 h was compared to the number of viable cells at the time of compound addition by measuring the absorbance at 570 nm, allowing for the calculation of growth inhibition.
All concentrations of compounds were tested in triplicate and controls were averaged over 4 wells. IC50 was calculated by plotting the concentration of compound vs the percentage of inhibition in treated wells using GraphPad Prism 5. […] The scale utilized in Table 3 is as follows: ++++ less than 20 nM; +++ between 20 nM and 100 nM; ++ between 100 nM and 1000 nM; and + greater than 1000 nM.

The mark [1] stands for this setting: A549 cells, 72 h compound exposure, MTT, read-out: IC50.

Where two headings read alike, the source gives them in different places.

For the molecule `C[C@]12CC[C@@H](NC(=O)CN)C[C@H]1CC[C@@H]1[C@@H]2CC[C@]2(C)[C@@H](c3ccc(=O)oc3)CC[C@]12O` [Compound C11, 2-amino-N-((3R,5R,8R,9S,10S,13R,14S,17R)-14-hydroxy-10,13-dimethyl-17-(2-oxo-2H-pyran-5-yl)hexadecahydro-1H-cyclopenta[a]phenanthren-3-yl)acetamide], the IC50 under setting [1] lay in the range of 20 to 100 nM.
As for `C[C@]12CC[C@@H](NC(=O)N3CCCC3)C[C@H]1CC[C@@H]1[C@@H]2CC[C@]2(C)[C@@H](c3ccc(=O)oc3)CC[C@]12O` [Compound C05, N-((3R,5R,8R,9S,10S,13R,14S,17R)-14-hydroxy-10,13-dimethyl-17-(2-oxo-2H-pyran-5-yl)hexadecahydro-1H-cyclopenta[a]phenanthren-3-yl)pyrrolidine-1-carboxamide], the IC50 (A549, 72 h) fell in the range of 100 to 1000 nM.
Still for that read-out and setting: for `CC(C)[C@@H](N)C(=O)N[C@H]1CC[C@]2(C)[C@H]3CC[C@]4(C)[C@@H](c5ccc(=O)oc5)CC[C@]4(O)[C@@H]3CC[C@]2(O)C1` [Compound C29, (2R)-2-amino-N-((5S,8R,9S,10R,13R,14S,17R)-5,14-dihydroxy-10,13-dimethyl-17-(2-oxo-2H-pyran-5-yl)hexadecahydro-1H-cyclopenta[a]phenanthren-3-yl)-3-methylbutanamide] the value was less than 20 nM; for `C[C@]12CC[C@H](NC(=O)NCCO)C[C@H]1CC[C@@H]1[C@@H]2CC[C@]2(C)[C@@H](c3ccc(=O)oc3)CC[C@]12O` [Compound C09, 1-((3S,5R,8R,9S,10S,13R,14S,17R)-14-hydroxy-10,13-dimethyl-17-(2-oxo-2H-pyran-5-yl)hexadecahydro-1H-cyclopenta[a]phenanthren-3-yl)-3-(2-hydroxyethyl)urea], 20 to 100 nM.
On the same count and under the same terms, for `C[C@]12CC[C@@H](N)C[C@H]1CC[C@@H]1[C@@H]2CC[C@]2(C)[C@@H](c3ccc(=O)oc3)CC[C@]12O` [Compound C34, 5-((3R,5R,8R,9S,10S,13R,14S,17R)-3-amino-14-hydroxy-10,13-dimethylhexadecahydro-1H-cyclopenta[a]phenanthren-17-yl)-2H-pyran-2-one] the value was more than 1000 nM; for `C[C@]12CC[C@@H](NC(=O)[C@@H]3CCCN3)C[C@H]1CC[C@@H]1[C@@H]2CC[C@]2(C)[C@@H](c3ccc(=O)oc3)CC[C@]12O` [Compound C13, (S)-N-((3R,5R,8R,9S,10S,13R,14S,17R)-14-hydroxy-10,13-dimethyl-17-(2-oxo-2H-pyran-5-yl)hexadecahydro-1H-cyclopenta[a]phenanthren-3-yl)pyrrolidine-2-carboxamide], 100 to 1000 nM.
For the molecule `C[C@]12CC[C@@H](NC(=O)N3CCNCC3)C[C@H]1CC[C@@H]1[C@@H]2CC[C@]2(C)[C@@H](c3ccc(=O)oc3)CC[C@]12O` [Compound C03, N-((3R,5R,8R,9S,10S,13R,14S,17R)-14-hydroxy-10,13-dimethyl-17-(2-oxo-2H-pyran-5-yl)hexadecahydro-1H-cyclopenta[a]phenanthren-3-yl)piperazine-1-carboxamide], the IC50 under setting [1] was less than 20 nM.
`COC(=O)N(C)C1CC[C@@]2(C)[C@H](CC[C@@H]3[C@@H]2CC[C@]2(C)[C@@H](c4ccc(=O)oc4)CC[C@]32O)C1` (stereo partly drawn) [Compound C21, methyl ((5R,8R,9S,10S,13R,14S,17R)-14-hydroxy-10,13-dimethyl-17-(2-oxo-2H-pyran-5-yl)hexadecahydro-1H-cyclopenta[a]phenanthren-3-yl)(methyl)carbamate]: the half-maximal inhibitory concentration (IC50) (A549, 72 h) is less than 20 nM.
`C[C@]12CC[C@H](NS(C)(=O)=O)C[C@H]1CC[C@@H]1[C@@H]2CC[C@]2(C)[C@@H](c3ccc(=O)oc3)CC[C@]12O` [Compound C16, N-((3S,5R,8R,9S,10S,13R,14S,17R)-14-hydroxy-10,13-dimethyl-17-(2-oxo-2H-pyran-5-yl)hexadecahydro-1H-cyclopenta[a]phenanthren-3-yl)methanesulfonamide]: for the setting “A549, 72 h”, the concentration for half-maximal inhibition (IC50) was less than 20 nM.
The same measure, in the same setting: in the case of `CC(C)[C@@H](N)C(=O)N[C@H]1CC[C@@]2(C)[C@H](CC[C@@H]3[C@@H]2CC[C@]2(C)[C@@H](c4ccc(=O)oc4)CC[C@]32O)C1` [Compound C25, (R)-2-amino-N-((3S,5R,8R,9S,10S,13R,14S,17R)-14-hydroxy-10,13-dimethyl-17-(2-oxo-2H-pyran-5-yl)hexadecahydro-1H-cyclopenta[a]phenanthren-3-yl)-3-methylbutanamide] it was less than 20 nM.
On to `C[C@]12CC[C@H](NC(=O)N3CCCC3)C[C@H]1CC[C@@H]1[C@@H]2CC[C@]2(C)[C@@H](c3ccc(=O)oc3)CC[C@]12O` [Compound C06, N-((3S,5R,8R,9S,10S,13R,14S,17R)-14-hydroxy-10,13-dimethyl-17-(2-oxo-2H-pyran-5-yl)hexadecahydro-1H-cyclopenta[a]phenanthren-3-yl)pyrrolidine-1-carboxamide], for which, for the setting “A549, 72 h”, the IC50 is less than 20 nM.
The same measure, in the same setting: in the case of `CN(C(=O)N1CCOCC1)C1CC[C@@]2(C)[C@H](CC[C@@H]3[C@@H]2CC[C@]2(C)[C@@H](c4ccc(=O)oc4)CC[C@]32O)C1` (stereo partly drawn) [Compound C23, N-((5R,8R,9S,10S,13R,14S,17R)-14-hydroxy-10,13-dimethyl-17-(2-oxo-2H-pyran-5-yl)hexadecahydro-1H-cyclopenta[a]phenanthren-3-yl)-N-methylmorpholine-4-carboxamide] it was 100 to 1000 nM; in that of `C[C@]12CC[C@H](N)C[C@H]1CC[C@@H]1[C@@H]2CC[C@]2(C)[C@@H](c3ccc(=O)oc3)CC[C@]12O` [Compound C35, 5-((3S,5R,8R,9S,10S,13R,14S,17R)-3-amino-14-hydroxy-10,13-dimethylhexadecahydro-1H-cyclopenta[a]phenanthren-17-yl)-2H-pyran-2-one], less than 20 nM.
With `C[C@]12CC[C@@H](NC(=O)N3CCOCC3)C[C@H]1CC[C@@H]1[C@@H]2CC[C@]2(C)[C@@H](c3ccc(=O)oc3)CC[C@]12O` [Compound C01, N-((3R,5R,8R,9S,10S,13R,14S,17R)-14-hydroxy-10,13-dimethyl-17-(2-oxo-2H-pyran-5-yl)hexadecahydro-1H-cyclopenta[a]phenanthren-3-yl)morpholine-4-carboxamide], the 50% inhibitory concentration (IC50) under setting [1] was in the range of 100 to 1000 nM.
Molecule `COC(=O)N[C@H]1CC[C@@]2(C)[C@H](CC[C@@H]3[C@@H]2CC[C@]2(C)[C@@H](c4ccc(=O)oc4)CC[C@]32O)C1` [Compound C17, methyl ((3S,5R,8R,9S,10S,13R,14S,17R)-14-hydroxy-10,13-dimethyl-17-(2-oxo-2H-pyran-5-yl)hexadecahydro-1H-cyclopenta[a]phenanthren-3-yl)carbamate] registered a half-maximal inhibitory concentration (IC50) (A549, 72 h) of less than 20 nM.
On the same count and under the same terms, for `C[C@]12CC[C@H](NC(=O)[C@@H]3CCCN3)C[C@H]1CC[C@@H]1[C@@H]2CC[C@]2(C)[C@@H](c3ccc(=O)oc3)CC[C@]12O` [Compound C14, (S)-N-((3S,5R,8R,9S,10S,13R,14S,17R)-14-hydroxy-10,13-dimethyl-17-(2-oxo-2H-pyran-5-yl)hexadecahydro-1H-cyclopenta[a]phenanthren-3-yl)pyrrolidine-2-carboxamide] the value was less than 20 nM; for `C[C@]12CC[C@@H](NC(=O)NCCO)C[C@H]1CC[C@@H]1[C@@H]2CC[C@]2(C)[C@@H](c3ccc(=O)oc3)CC[C@]12O` [Compound C07, 1-((3R,5R,8R,9S,10S,13R,14S,17R)-14-hydroxy-10,13-dimethyl-17-(2-oxo-2H-pyran-5-yl)hexadecahydro-1H-cyclopenta[a]phenanthren-3-yl)-3-(2-hydroxyethyl)urea], 100 to 1000 nM; for `C[C@]12CCC(NC(=O)[C@H]3CCCN3)C[C@@]1(O)CC[C@@H]1[C@@H]2CC[C@]2(C)[C@@H](c3ccc(=O)oc3)CC[C@]12O` (stereo partly drawn) [Compound C31, (2R)-N-((5S,8R,9S,10R,13R,14S,17R)-5,14-dihydroxy-10,13-dimethyl-17-(2-oxo-2H-pyran-5-yl)hexadecahydro-1H-cyclopenta[a]phenanthren-3-yl)pyrrolidine-2-carboxamide], less than 20 nM.
The same measure, in the same setting: for `C[C@]12CCC(N3CCNCC3)C[C@H]1CC[C@@H]1[C@@H]2CC[C@]2(C)[C@@H](c3ccc(=O)oc3)CC[C@]12O` (stereo partly drawn) [Compound C15, 5-((5R,8R,9S,10S,13R,14S,17R)-14-hydroxy-10,13-dimethyl-3-(piperazin-1-yl)hexadecahydro-1H-cyclopenta[a]phenanthren-17-yl)-2H-pyran-2-one] the value was less than 20 nM.
As for `C[C@]12CC[C@@H](NC(=O)NCCN)C[C@H]1CC[C@@H]1[C@@H]2CC[C@]2(C)[C@@H](c3ccc(=O)oc3)CC[C@]12O` [Compound C08, 1-(2-aminoethyl)-3-((3R,5R,8R,9S,10S,13R,14S,17R)-14-hydroxy-10,13-dimethyl-17-(2-oxo-2H-pyran-5-yl)hexadecahydro-1H-cyclopenta[a]phenanthren-3-yl)urea], under setting [1], the half-inhibitory concentration (IC50) was 100 to 1000 nM.

Source of the values: patent US11325940B2, “Certain chemical entities, compositions, and methods” (NeuPharma, Inc., priority 2012, dated 2022).
